Results from PubChem BioAssay (NCI).
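Five compound concentrations were applied to cells in 96-well plates for 48 hours; endpoints were derived by simple linear interpolation of the resulting dose-response curve. GI50: concentration for 50% inhibition of growth. Definition used: TGI = concentration required for complete inhibition of growth.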

Experiments:
Test in all cases: NCI-60 cell line screen, 48 h
CAKI-1 renal = tested on: CAKI-1 renal
MALME-3M melanoma = tested on: MALME-3M melanoma
M14 melanoma = tested on: M14 melanoma
A549 NSCLC = tested on: A549 NSCLC
HCT-116 colon = tested on: HCT-116 colon
DU-145 prostate = tested on: DU-145 prostate
SF-295 CNS = tested on: SF-295 CNS
NCI-H460 lung = tested on: NCI-H460 lung
IGROV1 ovarian = tested on: IGROV1 ovarian
K-562 leukemia = tested on: K-562 leukemia
KM12 colon = tested on: KM12 colon
SK-MEL-2 melanoma = tested on: SK-MEL-2 melanoma
HOP-62 NSCLC = tested on: HOP-62 NSCLC
BT-549 breast = tested on: BT-549 breast
HT29 colon = tested on: HT29 colon
NCI-H522 lung = tested on: NCI-H522 lung
OVCAR-5 ovarian = tested on: OVCAR-5 ovarian
HOP-92 NSCLC = tested on: HOP-92 NSCLC
T-47D breast = tested on: T-47D breast
LOX IMVI melanoma = tested on: LOX IMVI melanoma
SR leukemia = tested on: SR leukemia
SN12C renal = tested on: SN12C renal
U251 CNS = tested on: U251 CNS
SW-620 colon = tested on: SW-620 colon
UO-31 renal = tested on: UO-31 renal
HCT-15 colon = tested on: HCT-15 colon
PC-3 prostate = tested on: PC-3 prostate
COLO 205 colon = tested on: COLO 205 colon
ACHN renal = tested on: ACHN renal
OVCAR-8 ovarian = tested on: OVCAR-8 ovarian

**Q.** Which results are given for `C=CC[Se]C(=O)c1ccc(C(=O)[Se]CC=C)s1`?
**A.** GI50 (CAKI-1 renal): 0.81 µM; TGI (CAKI-1 renal): 9.76 µM; GI50 (MALME-3M melanoma): 0.67 µM; TGI (MALME-3M melanoma): 2.35 µM; GI50 (M14 melanoma): 0.387 µM; TGI (M14 melanoma): 1.57 µM; GI50 (A549 NSCLC): 0.313 µM; TGI (A549 NSCLC): > 27.5 µM; GI50 (HCT-116 colon): 0.327 µM; TGI (HCT-116 colon): 1.23 µM; GI50 (DU-145 prostate): 0.68 µM; TGI (DU-145 prostate): 6.4 µM; GI50 (SF-295 CNS): 0.0552 µM; TGI (SF-295 CNS): 0.317 µM; GI50 (NCI-H460 lung): 0.289 µM; TGI (NCI-H460 lung): 1.61 µM; GI50 (IGROV1 ovarian): 0.277 µM; TGI (IGROV1 ovarian): 0.727 µM; GI50 (K-562 leukemia): 2.1 µM; TGI (K-562 leukemia): > 23 µM; GI50 (KM12 colon): 0.284 µM; TGI (KM12 colon): 0.928 µM; GI50 (SK-MEL-2 melanoma): 1.26 µM; TGI (SK-MEL-2 melanoma): 3.17 µM; GI50 (HOP-62 NSCLC): 0.152 µM; TGI (HOP-62 NSCLC): 1.45 µM; GI50 (BT-549 breast): 0.324 µM; TGI (BT-549 breast): 1.3 µM; GI50 (HT29 colon): 0.887 µM; TGI (HT29 colon): > 31.5 µM; GI50 (NCI-H522 lung): 0.524 µM; TGI (NCI-H522 lung): 1.04 µM; GI50 (OVCAR-5 ovarian): 0.382 µM; TGI (OVCAR-5 ovarian): 1.01 µM; GI50 (HOP-92 NSCLC): 0.92 µM; TGI (HOP-92 NSCLC): 7.65 µM; GI50 (T-47D breast): 0.265 µM; TGI (T-47D breast): 0.962 µM; GI50 (LOX IMVI melanoma): 0.721 µM; TGI (LOX IMVI melanoma): 2 µM; GI50 (SR leukemia): 0.603 µM; TGI (SR leukemia): 2.21 µM; GI50 (SN12C renal): 0.348 µM; TGI (SN12C renal): 1.11 µM; GI50 (U251 CNS): 0.505 µM; TGI (U251 CNS): 1.87 µM; GI50 (SW-620 colon): 0.8 µM; TGI (SW-620 colon): 2.14 µM; GI50 (UO-31 renal): 0.515 µM; TGI (UO-31 renal): 1.09 µM; GI50 (HCT-15 colon): 0.765 µM; TGI (HCT-15 colon): 2.15 µM; GI50 (PC-3 prostate): 0.286 µM; TGI (PC-3 prostate): 1.29 µM; GI50 (COLO 205 colon): 1.4 µM; TGI (COLO 205 colon): 4.03 µM; GI50 (ACHN renal): 0.942 µM; TGI (ACHN renal): 4.37 µM; GI50 (OVCAR-8 ovarian): 0.345 µM
